Laboratory results as given in patent publication US11904051B2, “Shear stress sensitive liposomes” (Universität Basel, priority 2018, dated 2024).
“And” between values parts separate entries of the source, which are not always exact repeats. Equal entries are not always repeated.

Experiment: SAXS measurement of liposomes under static conditions (glass capillary)
Assay type: physicochemical
Settings: static condition
Excerpt: The investigated q-range between 0:02 nm^−1 and 1:65 nm^−1 corresponds to real-space distances d between 314 and 3 nm and, therefore, covers almost the entire nanometer range relevant for the characterization of the liposomes. The diagrams in FIG. 11 show the radially integrated scattering signal of DPPC-DSPE/PEG (top panel) and Pad-PC-Pad (bottom panel) liposomes acquired in suitable glass capillaries.
Suitable models are often utilized in the interpretation of the scattering signal of the system investigated. Herein, the scattering curves of DPPC/DSPE-PEG and Pad-PC-Pad were both fitted using a decoupling approach, which allowed to factorize the total form factor as product of a cross section term for long dimension and a cross section term for shorter dimension (Porod et al., IV. Acta Physica Austriaca 1948, 2, 255-292). To fit the form factor related to the overall shape of DPPC/DSPE-PEG, a thin spherical shell model was used (Breÿler et al., Journal of Applied Crystallography 2015, 48, 1587-1598), whereas the intensity peak related to the bilayer was fitted using a function for a bilayer with a Gaussian electron density profile (Pabst et al., Journal of Applied Crystallography 2003, 36, 1378-1388; Pabst et al., Physical Review E 2000, 62, 4000). The model utilized to fit the bilayer provided the bilayer thickness as the distance head-to-head dhh between the two phospholipid heads and the standard deviation over the phoshpolipid heads.
To fit the form factor related to the overall shape of Pad-PC-Pad a thin ellipsoidal shell model was used (Olson et al., Biochimica et Biophysica Acta (BBA)—Biomembranes 1979, 557, 9-23). An eccentricity E of 0.43 was found. As for DPPC/DSPE-PEG, the intensity peak related to the phospholipid head-to-head distance dhh was fitted using a function for a bilayer with a Gaussian electron density profile (Pabst et al., Journal of Applied Crystallography 2003, 36, 1378-1388; Pabst et al., Physical Review E 2000, 62, 4000) and a normal distribution over dhh. […]

## CCCCCCCCCCCCCCCC(=O)NCC(CNC(=O)CCCCCCCCCCCCCCC)OP(=O)([O-])OCC[N+](C)(C)C [Pad-PC-Pad, 1,3-palmitoylamido-1,3-deoxy-sn-glycero-2-phosphatidylcholine]
Bilayer Gauss electron density profile model
  head-to-head distance dhh: 3.3±0.8 nm and 3.3 nm
Glass capillary, flow rate 0
  Radius of gyration Rg: 60.3 nm and 60.3 ± 0.4 nm
Thin ellipsoidal shell model
  eccentricity ε: 0.43
